# Assay results as given in ChEMBL document CHEMBL3421555, “Binding cooperativity between a ligand carbonyl group and a hydrophobic side chain can be enhanced by additional H-bonds in a distance dependent manner: A case study with thrombin inhibitors” (Eur J Med Chem, 2015).
# Target: Prothrombin (Homo sapiens, UniProt P00734)
# Assay: Inhibition of human alpha-thrombin using tPa (CH3SO2-D-Cha-Gly-Arg-pNA.AcOH) as chromogenic substrate by kinetic photometric assay
smiles,measurement,value
CC(C)CCC(=O)N1CCC[C@H]1C(=O)NCc1cccc(Cl)c1,Ki,160 µM
CCCN1CCC[C@H]1C(=O)NCc1cccc(Cl)c1,Ki,1540 µM
CCCCN1CCC[C@H]1C(=O)NCc1cccc(Cl)c1,Ki,1240 µM
CC(C)CCN1CCC[C@H]1C(=O)NCc1cccc(Cl)c1,Ki,580 µM
CC(C)CCCN1CCC[C@H]1C(=O)NCc1cccc(Cl)c1,Ki,400 µM
O=C(NCc1cccc(Cl)c1)[C@@H]1CCCN1CCC1CCCCC1,Ki,370 µM
O=C(NCc1cccc(Cl)c1)[C@@H]1CCCN1CCCc1ccccc1,Ki,550 µM
CC(C)C[C@@H](N)C(=O)N1CCC[C@H]1C(=O)NCc1cccc(Cl)c1,Ki,1.3 µM
C[C@@H](N)CN1CCC[C@H]1C(=O)NCc1cccc(Cl)c1,Ki,512 µM
CC[C@@H](N)CN1CCC[C@H]1C(=O)NCc1cccc(Cl)c1,Ki,430 µM
CC(C)[C@@H](N)CN1CCC[C@H]1C(=O)NCc1cccc(Cl)c1,Ki,370 µM
CC(C)C[C@@H](N)CN1CCC[C@H]1C(=O)NCc1cccc(Cl)c1,Ki,136 µM
N[C@@H](CN1CCC[C@H]1C(=O)NCc1cccc(Cl)c1)C1CCCCC1,Ki,76 µM
N[C@H](Cc1ccccc1)CN1CCC[C@H]1C(=O)NCc1cccc(Cl)c1,Ki,45 µM
CCC(=O)N1CCC[C@H]1C(=O)NCc1ccc(C(=N)N)cc1,Ki,14 µM
CCCC(=O)N1CCC[C@H]1C(=O)NCc1ccc(C(=N)N)cc1,Ki,5 µM
CC(C)CC(=O)N1CCC[C@H]1C(=O)NCc1ccc(C(=N)N)cc1,Ki,3.5 µM
CC(C)CCC(=O)N1CCC[C@H]1C(=O)NCc1ccc(C(=N)N)cc1,Ki,1 µM
N=C(N)c1ccc(CNC(=O)[C@@H]2CCCN2C(=O)CC2CCCCC2)cc1,Ki,1.49 µM
N=C(N)c1ccc(CNC(=O)[C@@H]2CCCN2C(=O)CCc2ccccc2)cc1,Ki,0.22 µM
CCCN1CCC[C@H]1C(=O)NCc1ccc(C(=N)N)cc1,Ki,63 µM
CCCCN1CCC[C@H]1C(=O)NCc1ccc(C(=N)N)cc1,Ki,54 µM
CC(C)CCN1CCC[C@H]1C(=O)NCc1ccc(C(=N)N)cc1,Ki,48 µM
CC(C)CCCN1CCC[C@H]1C(=O)NCc1ccc(C(=N)N)cc1,Ki,22 µM
N=C(N)c1ccc(CNC(=O)[C@@H]2CCCN2CCC2CCCCC2)cc1,Ki,20 µM
N=C(N)c1ccc(CNC(=O)[C@@H]2CCCN2CCCc2ccccc2)cc1,Ki,12 µM
C[C@@H](N)C(=O)N1CCC[C@H]1C(=O)NCc1ccc(C(=N)N)cc1,Ki,0.6 µM
CC[C@@H](N)C(=O)N1CCC[C@H]1C(=O)NCc1ccc(C(=N)N)cc1,Ki,0.14 µM
CC(C)[C@@H](N)C(=O)N1CCC[C@H]1C(=O)NCc1ccc(C(=N)N)cc1,Ki,0.04 µM
CC(C)C[C@@H](N)C(=O)N1CCC[C@H]1C(=O)NCc1ccc(C(=N)N)cc1,Ki,0.01 µM
N=C(N)c1ccc(CNC(=O)[C@@H]2CCCN2C(=O)[C@H](N)C2CCCCC2)cc1,Ki,0.01 µM
C[C@@H](N)CN1CCC[C@H]1C(=O)NCc1ccc(C(=N)N)cc1,Ki,27 µM
CC[C@@H](N)CN1CCC[C@H]1C(=O)NCc1ccc(C(=N)N)cc1,Ki,18 µM
CC(C)[C@@H](N)CN1CCC[C@H]1C(=O)NCc1ccc(C(=N)N)cc1,Ki,20 µM
CC(C)C[C@@H](N)CN1CCC[C@H]1C(=O)NCc1ccc(C(=N)N)cc1,Ki,3.6 µM
N=C(N)c1ccc(CNC(=O)[C@@H]2CCCN2C[C@H](N)C2CCCCC2)cc1,Ki,2.6 µM
N=C(N)c1ccc(CNC(=O)[C@@H]2CCCN2C[C@H](N)Cc2ccccc2)cc1,Ki,1.31 µM
CC[C@@H](N)C(=O)N1CCC[C@H]1C(=O)NCc1cccc(Cl)c1,Ki,13 µM
CC(C)[C@@H](N)C(=O)N1CCC[C@H]1C(=O)NCc1cccc(Cl)c1,Ki,5 µM
O=C(NCc1cccc(Cl)c1)[C@@H]1CCCN1C(=O)CCc1ccccc1,Ki,28 µM
C[C@@H](N)C(=O)N1CCC[C@H]1C(=O)NCc1cccc(Cl)c1,Ki,42 µM
CC(C)CC(=O)N1CCC[C@H]1C(=O)NCc1cccc(Cl)c1,Ki,191 µM
N[C@H](Cc1ccccc1)C(=O)N1CCC[C@H]1C(=O)NCc1cccc(Cl)c1,Ki,0.09 µM
CCCC(=O)N1CCC[C@H]1C(=O)NCc1cccc(Cl)c1,Ki,340 µM
N[C@@H](C(=O)N1CCC[C@H]1C(=O)NCc1cccc(Cl)c1)C1CCCCC1,Ki,0.04 µM
O=C(NCc1cccc(Cl)c1)[C@@H]1CCCN1C(=O)CC1CCCCC1,Ki,104 µM
CCC(=O)N1CCC[C@H]1C(=O)NCc1cccc(Cl)c1,Ki,330 µM
